# Measurements as given in the supplement of paper PMC10307832.
# Legend:
# Assay in all cases: relative viability (nuclei count vs DMSO), 5 days (fraction); higher = more cells survive
# UMC-11 = tested on: UMC-11
# Summary of the method: (§1)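 Medians of duplicate plates are given as relative viability. That measure is the nuclei count in treated wells divided by the count in vehicle wells. Counts were taken on 4× images of lung cancer cell lines in 1536-well plates, 5 days after pin-tool dosing the day after seeding with one drug alone or a fixed anchor-drug dose plus five library-drug doses (not always all listed) in √10 steps.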
# LCLC-103H = tested on: LCLC-103H
# Summary of the method: as §1
# HCC-827 = tested on: HCC-827
# Summary of the method: as §1
# NCI-H650 = tested on: NCI-H650
# Summary of the method: as §1
# NCI-H2347 = tested on: NCI-H2347
# Summary of the method: as §1
# NCI-H1975 = tested on: NCI-H1975
# Summary of the method: as §1
# NCI-H1355 = tested on: NCI-H1355
# Summary of the method: as §1
# RERF-LC-KJ = tested on: RERF-LC-KJ
# Summary of the method: as §1
# HCC-366 = tested on: HCC-366
# Summary of the method: as §1
# NCI-H1915 = tested on: NCI-H1915
# Summary of the method: as §1
# NCI-H2170 = tested on: NCI-H2170
# Summary of the method: as §1
# SK-MES-1 = tested on: SK-MES-1
# Summary of the method: as §1
# SW 1573 = tested on: SW 1573
# Summary of the method: as §1
# LC-2-ad = tested on: LC-2-ad
# Summary of the method: as §1
# NCI-H1993 = tested on: NCI-H1993
# Summary of the method: as §1
# SK-LU-1 = tested on: SK-LU-1
# Summary of the method: as §1
# NCI-H1755 = tested on: NCI-H1755
# Summary of the method: as §1
# A-427 = tested on: A-427
# Summary of the method: as §1
# NCI-H2342 = tested on: NCI-H2342
# Summary of the method: as §1
# NCI-H23 = tested on: NCI-H23
# Summary of the method: as §1
# NCI-H1734 = tested on: NCI-H1734
# Summary of the method: as §1
# NCI-H2228 = tested on: NCI-H2228
# Summary of the method: as §1
structure (smiles),measurement,setting,value
Cc1csc(=NC2CCCCC2)n1/N=C/c1ccc(O)c(O)c1O [MIM1] + Cc1cc(Nc2cc(N3CCN(C)CC3)nc(Sc3ccc(NC(=O)C4CC4)cc3)n2)n[nH]1 [Tozasertib] (partner 0.1 µM),relative viability,UMC-11; first compound 0.2 µM,0.197
same,relative viability,UMC-11; first compound 2 µM,0.196
same,relative viability,UMC-11; first compound 6.325 µM,0.207
same,relative viability,UMC-11; first compound 20 µM,0.187
same,relative viability,LCLC-103H; first compound 0.2 µM,0.609
same,relative viability,LCLC-103H; first compound 0.6325 µM,0.426
same,relative viability,LCLC-103H; first compound 2 µM,0.505
same,relative viability,LCLC-103H; first compound 6.325 µM,0.41
same,relative viability,LCLC-103H; first compound 20 µM,0.268
same,relative viability,HCC-827; first compound 0.2 µM,0.43
same,relative viability,HCC-827; first compound 0.6325 µM,0.404
same,relative viability,HCC-827; first compound 2 µM,0.411
same,relative viability,HCC-827; first compound 6.325 µM,0.169
same,relative viability,HCC-827; first compound 20 µM,0.177
same,relative viability,NCI-H650; first compound 0.2 µM,0.774
same,relative viability,NCI-H650; first compound 0.6325 µM,0.711
same,relative viability,NCI-H650; first compound 2 µM,0.748
same,relative viability,NCI-H650; first compound 6.325 µM,0.69
same,relative viability,NCI-H650; first compound 20 µM,0.244
same,relative viability,NCI-H2347; first compound 0.2 µM,0.478
same,relative viability,NCI-H2347; first compound 0.6325 µM,0.51
same,relative viability,NCI-H2347; first compound 2 µM,0.497
same,relative viability,NCI-H2347; first compound 6.325 µM,0.473
same,relative viability,NCI-H2347; first compound 20 µM,0.369
same,relative viability,NCI-H1975; first compound 0.2 µM,0.643
same,relative viability,NCI-H1975; first compound 0.6325 µM,0.807
same,relative viability,NCI-H1975; first compound 2 µM,0.699
same,relative viability,NCI-H1975; first compound 6.325 µM,0.338
same,relative viability,NCI-H1975; first compound 20 µM,0.254
same,relative viability,NCI-H1355; first compound 0.2 µM,0.588
same,relative viability,NCI-H1355; first compound 0.6325 µM,0.557
same,relative viability,NCI-H1355; first compound 2 µM,0.519
same,relative viability,NCI-H1355; first compound 6.325 µM,0.464
same,relative viability,NCI-H1355; first compound 20 µM,0.3
same,relative viability,RERF-LC-KJ; first compound 0.2 µM,0.507
same,relative viability,RERF-LC-KJ; first compound 0.6325 µM,0.503
same,relative viability,RERF-LC-KJ; first compound 2 µM,0.317
same,relative viability,RERF-LC-KJ; first compound 6.325 µM,0.231
same,relative viability,RERF-LC-KJ; first compound 20 µM,0.224
same,relative viability,HCC-366; first compound 0.2 µM,0.147
same,relative viability,HCC-366; first compound 2 µM,0.134
same,relative viability,HCC-366; first compound 6.325 µM,0.026
same,relative viability,HCC-366; first compound 20 µM,0.0212
same,relative viability,NCI-H1915; first compound 0.2 µM,0.499
same,relative viability,NCI-H1915; first compound 0.6325 µM,0.403
same,relative viability,NCI-H1915; first compound 2 µM,0.337
same,relative viability,NCI-H1915; first compound 6.325 µM,0.305
same,relative viability,NCI-H1915; first compound 20 µM,0.182
same,relative viability,NCI-H2170; first compound 0.2 µM,0.706
same,relative viability,NCI-H2170; first compound 0.6325 µM,0.721
same,relative viability,NCI-H2170; first compound 2 µM,0.62
same,relative viability,NCI-H2170; first compound 6.325 µM,0.478
same,relative viability,NCI-H2170; first compound 20 µM,0.206
same,relative viability,SK-MES-1; first compound 0.2 µM,0.909
same,relative viability,SK-MES-1; first compound 0.6325 µM,0.848
same,relative viability,SK-MES-1; first compound 2 µM,0.742
same,relative viability,SK-MES-1; first compound 6.325 µM,0.643
same,relative viability,SK-MES-1; first compound 20 µM,0.492
same,relative viability,SW 1573; first compound 0.2 µM,0.21
same,relative viability,SW 1573; first compound 0.6325 µM,0.197
same,relative viability,SW 1573; first compound 2 µM,0.257
same,relative viability,SW 1573; first compound 6.325 µM,0.127
same,relative viability,SW 1573; first compound 20 µM,0.128
same,relative viability,LC-2-ad; first compound 0.2 µM,0.546
same,relative viability,LC-2-ad; first compound 0.6325 µM,0.471
same,relative viability,LC-2-ad; first compound 2 µM,0.367
same,relative viability,LC-2-ad; first compound 6.325 µM,0.364
same,relative viability,LC-2-ad; first compound 20 µM,0.223
same,relative viability,NCI-H1993; first compound 0.2 µM,0.57
same,relative viability,NCI-H1993; first compound 0.6325 µM,0.538
same,relative viability,NCI-H1993; first compound 2 µM,0.539
same,relative viability,NCI-H1993; first compound 6.325 µM,0.518
same,relative viability,NCI-H1993; first compound 20 µM,0.433
same,relative viability,SK-LU-1; first compound 0.2 µM,0.329
same,relative viability,SK-LU-1; first compound 0.6325 µM,0.374
same,relative viability,SK-LU-1; first compound 2 µM,0.393
same,relative viability,SK-LU-1; first compound 6.325 µM,0.273
same,relative viability,SK-LU-1; first compound 20 µM,0.283
same,relative viability,NCI-H1755; first compound 0.2 µM,0.606
same,relative viability,NCI-H1755; first compound 0.6325 µM,0.629
same,relative viability,NCI-H1755; first compound 2 µM,0.563
same,relative viability,NCI-H1755; first compound 6.325 µM,0.477
same,relative viability,NCI-H1755; first compound 20 µM,0.266
same,relative viability,A-427; first compound 0.2 µM,0.266
same,relative viability,A-427; first compound 2 µM,0.202
same,relative viability,A-427; first compound 6.325 µM,0.249
same,relative viability,A-427; first compound 20 µM,0.164
same,relative viability,NCI-H2342; first compound 0.2 µM,0.429
same,relative viability,NCI-H2342; first compound 0.6325 µM,0.58
same,relative viability,NCI-H2342; first compound 2 µM,0.53
same,relative viability,NCI-H2342; first compound 6.325 µM,0.508
same,relative viability,NCI-H2342; first compound 20 µM,0.575
same,relative viability,NCI-H23; first compound 0.2 µM,0.398
same,relative viability,NCI-H23; first compound 2 µM,0.325
same,relative viability,NCI-H23; first compound 6.325 µM,0.175
same,relative viability,NCI-H23; first compound 20 µM,0.15
same,relative viability,NCI-H1734; first compound 0.2 µM,0.226
same,relative viability,NCI-H1734; first compound 0.6325 µM,0.261
same,relative viability,NCI-H1734; first compound 2 µM,0.256
same,relative viability,NCI-H1734; first compound 6.325 µM,0.169
same,relative viability,NCI-H1734; first compound 20 µM,0.124
same,relative viability,NCI-H2228; first compound 0.2 µM,0.257
same,relative viability,NCI-H2228; first compound 0.6325 µM,0.284
same,relative viability,NCI-H2228; first compound 2 µM,0.234
same,relative viability,NCI-H2228; first compound 6.325 µM,0.203
same,relative viability,NCI-H2228; first compound 20 µM,0.123
